≈ marks a conversion by molar mass, not a printed value. Where two headings read alike, the source gives them in different places.
How the values were obtained:
[1] = test system: control Gram-negative E. coli 25922 strain; test: Antibacterial activity, microbroth dilution MIC, E. coli 25922; assay type: cell-based, Escherichia coli; details: Escherichia coli; E. coli 25922, microbroth dilution; read-out: MIC, 25922
[2] = test system: super sensitive Gram-negative Escherichia coli (E. coli) BAS849; test: Antibacterial activity, microbroth dilution MIC, E. coli BAS849; assay type: cell-based; details: Escherichia coli, read-out: MIC, BAS849
[3] = test system: Gram-positive Staphylococcus aureus (S. aureus) 29213; test: Antibacterial activity, microbroth dilution MIC, S. aureus 29213; assay type: cell-based; details: Staphylococcus aureus; S. aureus 29213, microbroth dilution; read-out: MIC, 29213
[4] = E. coli BAS849, microbroth dilution

Compound | MIC [1] [µg/mL] | MIC [2, 4] [µg/mL] | MIC [3] [µg/mL] | MIC [2] [µg/mL]
CCc1cc(C(=O)O)c(=O)[nH]c1-c1ccc(N2CC(N)C2)cc1 [Cpd 170, 6-[4-(3-aminoazetidin-1-yl)phenyl]-5-ethyl-2-oxo-1,2-dihydropyridine-3-carboxylic acid] | 12.5 to 150 (≈ 39.9 to 479 µM) | 12.5 to 150 (≈ 39.9 to 479 µM) | 12.5 to 150 (≈ 39.9 to 479 µM) | 
CCc1cc(C(=O)O)c(=O)[nH]c1-c1ccc(I)cc1 [Cpd 80, 5-ethyl-6-(4-iodophenyl)-2-oxo-1,2-dihydropyridine-3-carboxylic acid] | 12.5 to 150 (≈ 33.9 to 406 µM) | 3.5 to 12.5 (≈ 9.48 to 33.9 µM) | 12.5 to 150 (≈ 33.9 to 406 µM) | 
CCc1c(-c2ccc(F)cc2)[nH]c(=O)c(C(=O)O)c1O [Cpd 74, 5-ethyl-6-(4-fluorophenyl)-4-hydroxy-2-oxo-1,2-dihydropyridine-3-carboxylic acid] | 12.5 to 150 (≈ 45.1 to 541 µM) | 3.5 to 12.5 (≈ 12.6 to 45.1 µM) | 12.5 to 150 (≈ 45.1 to 541 µM) | 
CCc1c(-c2ccccc2N2CCCC2)[nH]c(=O)c(C(=O)O)c1O [Cpd 47, 5-ethyl-4-hydroxy-2-oxo-6-[2-(pyrrolidin-1-yl)phenyl]-1,2-dihydropyridine-3-carboxylic acid] | 12.5 to 150 (≈ 38.1 to 457 µM) | 1 to 3.5 (≈ 3.05 to 10.7 µM) | 3.5 to 12.5 (≈ 10.7 to 38.1 µM) | 
CCc1c(-c2ccc(N3CCCC3)c(OC)c2)[nH]c(=O)c(C(=O)O)c1O [Cpd 67, 5-ethyl-4-hydroxy-6-[3-methoxy-4-(pyrrolidin-1-yl)phenyl]-2-oxo-1,2-dihydropyridine-3-carboxylic acid] | 12.5 to 150 (≈ 34.9 to 419 µM) | 3.5 to 12.5 (≈ 9.77 to 34.9 µM) | 1 to 3.5 (≈ 2.79 to 9.77 µM) | 
CCc1c(-c2ccc(OC)cc2N(C)C)[nH]c(=O)c(C(=O)O)c1O [Cpd 60, 6-[2-(dimethylamino)-4-methoxyphenyl]-5-ethyl-4-hydroxy-2-oxo-1,2-dihydropyridine-3-carboxylic acid] | 12.5 to 150 (≈ 37.6 to 451 µM) | 3.5 to 12.5 (≈ 10.5 to 37.6 µM) | 3.5 to 12.5 (≈ 10.5 to 37.6 µM) | 
CCc1c(-c2ccc(OC)cc2N2CCCC2)[nH]c(=O)c(C(=O)O)c1O [Cpd 48, 5-ethyl-4-hydroxy-6-[4-methoxy-2-(pyrrolidin-1-yl)phenyl]-2-oxo-1,2-dihydropyridine-3-carboxylic acid] | 12.5 to 150 (≈ 34.9 to 419 µM) | 3.5 to 12.5 (≈ 9.77 to 34.9 µM) | 3.5 to 12.5 (≈ 9.77 to 34.9 µM) | 
CCc1cc(C(=O)O)c(=O)[nH]c1-c1ccc(OC)cc1N1CCCC1 [Cpd 35, 5-ethyl-6-[4-methoxy-2-(pyrrolidin-1-yl)phenyl]-2-oxo-1,2-dihydropyridine-3-carboxylic acid] | 12.5 to 150 (≈ 36.5 to 438 µM) | 12.5 to 150 (≈ 36.5 to 438 µM) | 12.5 to 150 (≈ 36.5 to 438 µM) | 
CCc1cc(C(=O)O)c(=O)[nH]c1-c1ccc(N(C)C)c(OC)c1 [Cpd 64, 6-[4-(dimethylamino)-3-methoxyphenyl]-5-ethyl-2-oxo-1,2-dihydropyridine-3-carboxylic acid] | 12.5 to 150 (≈ 39.5 to 474 µM) | 3.5 to 12.5 (≈ 11.1 to 39.5 µM) | 12.5 to 150 (≈ 39.5 to 474 µM) | 
CCc1cc(C(=O)O)c(=O)[nH]c1-c1ccc(N2CCCC2)cc1C [Cpd 37, 5-ethyl-6-[2-methyl-4-(pyrrolidin-1-yl)phenyl]-2-oxo-1,2-dihydropyridine-3-carboxylic acid] | 12.5 to 150 (≈ 38.3 to 460 µM) | 12.5 to 150 (≈ 38.3 to 460 µM) | 12.5 to 150 (≈ 38.3 to 460 µM) | 
CCc1cc(C(=O)O)c(=O)[nH]c1-c1ccc(Br)cc1 [Cpd 78, 6-(4-bromophenyl)-5-ethyl-2-oxo-1,2-dihydropyridine-3-carboxylic acid] | 12.5 to 150 (≈ 38.8 to 466 µM) | 3.5 to 12.5 (≈ 10.9 to 38.8 µM) | 12.5 to 150 (≈ 38.8 to 466 µM) | 
CCc1cc(C(=O)O)c(=O)[nH]c1-c1ccc(F)cc1 [Cpd 26, 5-ethyl-6-(4-fluorophenyl)-2-oxo-1,2-dihydropyridine-3-carboxylic acid] | 12.5 to 150 (≈ 47.8 to 574 µM) | 12.5 to 150 (≈ 47.8 to 574 µM) | 12.5 to 150 (≈ 47.8 to 574 µM) | 
CCc1c(-c2ccc(N3CCCCC3)cc2C)[nH]c(=O)c(C(=O)O)c1O [Cpd 51, 5-ethyl-4-hydroxy-6-[2-methyl-4-(piperidin-1-yl)phenyl]-2-oxo-1,2-dihydropyridine-3-carboxylic acid] | 12.5 to 150 (≈ 35.1 to 421 µM) | 3.5 to 12.5 (≈ 9.82 to 35.1 µM) | 3.5 to 12.5 (≈ 9.82 to 35.1 µM) | 
CCc1c(-c2ccc(N3CCCC3)cc2C)[nH]c(=O)c(C(=O)O)c1O [Cpd 39, 5-ethyl-4-hydroxy-6-[2-methyl-4-(pyrrolidin-1-yl)phenyl]-2-oxo-1,2-dihydropyridine-3-carboxylic acid] | 12.5 to 150 (≈ 36.5 to 438 µM) | 3.5 to 12.5 (≈ 10.2 to 36.5 µM) | 1 to 3.5 (≈ 2.92 to 10.2 µM) | 
CCc1c(-c2ccc(Br)cc2)[nH]c(=O)c(C(=O)O)c1O [Cpd 79, 6-(4-bromophenyl)-5-ethyl-4-hydroxy-2-oxo-1,2-dihydropyridine-3-carboxylic acid] | 12.5 to 150 (≈ 37 to 444 µM) | < 1 | 3.5 to 12.5 (≈ 10.4 to 37 µM) | 
CCc1cc(C(=O)O)c(=O)[nH]c1-c1ccc(N2C(=O)C3C=CC2C3)cc1 (stereo not drawn) [Cpd 119, 5-ethyl-2-oxo-6-[4-(3-oxo-2-azabicyclo[2.2.1]hept-5-en-2-yl)phenyl]-1,2-dihydropyridine-3-carboxylic acid] | 12.5 to 150 (≈ 35.7 to 428 µM) | 1 to 3.5 (≈ 2.85 to 9.99 µM) | 12.5 to 150 (≈ 35.7 to 428 µM) | 
CCc1cc(C(=O)O)c(=O)[nH]c1-c1ccccc1N1CCCC1 [Cpd 46, 5-ethyl-2-oxo-6-[2-(pyrrolidin-1-yl)phenyl]-1,2-dihydropyridine-3-carboxylic acid] | 12.5 to 150 (≈ 40 to 480 µM) | 12.5 to 150 (≈ 40 to 480 µM) | 12.5 to 150 (≈ 40 to 480 µM) | 

Compound | MIC [1] [µg/mL] | MIC [2, 4] [µg/mL] | MIC [3] [µg/mL] | MIC [2] [µg/mL]
CCc1cc(C(=O)O)c(=O)[nH]c1-c1ccc(N2CCCCC2)cc1OC [Cpd 59, 5-ethyl-6-[2-methoxy-4-(piperidin-1-yl)phenyl]-2-oxo-1,2-dihydropyridine-3-carboxylic acid] | 12.5 to 150 (≈ 35.1 to 421 µM) | 12.5 to 150 (≈ 35.1 to 421 µM) | 12.5 to 150 (≈ 35.1 to 421 µM) | 
CCc1c(-c2ccc(OC)cc2C)[nH]c(=O)c(C(=O)O)c1O [Cpd 32, 5-ethyl-4-hydroxy-6-(4-methoxy-2-methylphenyl)-2-oxo-1,2-dihydropyridine-3-carboxylic acid] | 12.5 to 150 (≈ 41.2 to 495 µM) | 3.5 to 12.5 (≈ 11.5 to 41.2 µM) | 3.5 to 12.5 (≈ 11.5 to 41.2 µM) | 
CCc1cc(C(=O)O)c(=O)[nH]c1-c1ccc(N2CC3CC2CN3C(=O)OC(C)(C)C)cc1 (stereo not drawn) [Cpd 137, 6-{4-[5-(tert-butoxycarbonyl)-2,5-diazabicyclo[2.2.1]hept-2-yl]phenyl}-5-ethyl-2-oxo-1,2-dihydropyridine-3-carboxylic acid] | 12.5 to 150 (≈ 28.4 to 341 µM) |  | 12.5 to 150 (≈ 28.4 to 341 µM) | < 1
CCc1cc(C(=O)O)c(=O)[nH]c1-c1ccc(N2CCC(CN(Cc3ccccc3)Cc3ccccc3)C2)cc1.O=C(O)C(F)(F)F (stereo not drawn) [Cpd 181, 6-(4-{3-[(dibenzylamino)methyl]pyrrolidin-1-yl}phenyl)-5-ethyl-2-oxo-1,2-dihydropyridine-3-carboxylic acid trifluoroacetate] | 12.5 to 150 |  | 12.5 to 150 | 3.5 to 12.5
CCc1cc(C(=O)O)c(=O)[nH]c1-c1ccc(N2CCC(N(CC)CC)C2)cc1.O=C(O)C(F)(F)F (stereo not drawn) [Cpd 172, 6-{4-[3-(diethylamino)pyrrolidin-1-yl]phenyl}-5-ethyl-2-oxo-1,2-dihydropyridine-3-carboxylic acid trifluoroacetate] | 3.5 to 12.5 |  | 12.5 to 150 | < 1
CCc1cc(C(=O)O)c(=O)[nH]c1-c1ccc(C#N)cc1 [Cpd 15, 6-(4-cyanophenyl)-5-ethyl-2-oxo-1,2-dihydropyridine-3-carboxylic acid] | 12.5 to 150 (≈ 46.6 to 559 µM) | 12.5 to 150 (≈ 46.6 to 559 µM) | 12.5 to 150 (≈ 46.6 to 559 µM) | 
CCc1cc(C(=O)O)c(=O)[nH]c1-c1ccc(N(C)C)s1 [Cpd 305, 6-[5-(dimethylamino)thiophen-2-yl]-5-ethyl-2-oxo-1,2-dihydropyridine-3-carboxylic acid] | 12.5 to 150 (≈ 42.8 to 513 µM) | < 1 | 12.5 to 150 (≈ 42.8 to 513 µM) | 
CCc1c(-c2ccc(N3CCCC3)s2)[nH]c(=O)c(C(=O)O)c1O [Cpd 307, 5-ethyl-4-hydroxy-2-oxo-6-[5-(pyrrolidin-1-yl)thiophen-2-yl]-1,2-dihydropyridine-3-carboxylic acid] | 12.5 to 150 (≈ 37.4 to 449 µM) | < 1 | 3.5 to 12.5 (≈ 10.5 to 37.4 µM) | 
CCc1c(-c2ccc(N(C)C)cc2OC)[nH]c(=O)c(C(=O)O)c1O [Cpd 61, 6-[4-(dimethylamino)-2-methoxyphenyl]-5-ethyl-4-hydroxy-2-oxo-1,2-dihydropyridine-3-carboxylic acid] | 12.5 to 150 (≈ 37.6 to 451 µM) | 3.5 to 12.5 (≈ 10.5 to 37.6 µM) | 3.5 to 12.5 (≈ 10.5 to 37.6 µM) | 
CCc1c(-c2ccc(N3CCCCC3)c(C)c2)[nH]c(=O)c(C(=O)O)c1O [Cpd 73, 5-ethyl-4-hydroxy-6-[3-methyl-4-(piperidin-1-yl)phenyl]-2-oxo-1,2-dihydropyridine-3-carboxylic acid] | 12.5 to 150 (≈ 35.1 to 421 µM) | 3.5 to 12.5 (≈ 9.82 to 35.1 µM) | 3.5 to 12.5 (≈ 9.82 to 35.1 µM) | 
CCc1cc(C(=O)O)c(=O)[nH]c1-c1ccc(-c2nnn[nH]2)cc1 [Cpd 23, 5-ethyl-2-oxo-6-[4-(1H-tetrazol-5-yl)phenyl]-1,2-dihydropyridine-3-carboxylic acid] | 12.5 to 150 (≈ 40.2 to 482 µM) | 12.5 to 150 (≈ 40.2 to 482 µM) | 12.5 to 150 (≈ 40.2 to 482 µM) | 
CCc1cc(C(=O)O)c(=O)[nH]c1-c1ccc(N2CC(OC3CCCCO3)C2)cc1 (stereo not drawn) [Cpd 120, 5-ethyl-2-oxo-6-{4-[3-(tetrahydro-2H-pyran-2-yloxy)azetidin-1-yl]phenyl}-1,2-dihydropyridine-3-carboxylic acid] | 12.5 to 150 (≈ 31.4 to 376 µM) | < 1 | 12.5 to 150 (≈ 31.4 to 376 µM) | 
CCc1c(-c2ccc(N(C)C)cc2C)[nH]c(=O)c(C(=O)O)c1O [Cpd 56, 6-[4-(dimethylamino)-2-methylphenyl]-5-ethyl-4-hydroxy-2-oxo-1,2-dihydropyridine-3-carboxylic acid] | 12.5 to 150 (≈ 39.5 to 474 µM) | 3.5 to 12.5 (≈ 11.1 to 39.5 µM) | 3.5 to 12.5 (≈ 11.1 to 39.5 µM) | 
CCc1cc(C(=O)O)c(=O)[nH]c1-c1ccc(N2CCCCC2)c(C)c1 [Cpd 72, 5-ethyl-6-[3-methyl-4-(piperidin-1-yl)phenyl]-2-oxo-1,2-dihydropyridine-3-carboxylic acid] | 12.5 to 150 (≈ 36.7 to 441 µM) | 3.5 to 12.5 (≈ 10.3 to 36.7 µM) | 12.5 to 150 (≈ 36.7 to 441 µM) | 
CCc1cc(C(=O)O)c(=O)[nH]c1-c1ccc(N2Cc3ccccc3C2)cc1 [Cpd 162, 6-[4-(1,3-dihydro-2H-isoindol-2-yl)phenyl]-5-ethyl-2-oxo-1,2-dihydropyridine-3-carboxylic acid] | 12.5 to 150 (≈ 34.7 to 416 µM) | 3.5 to 12.5 (≈ 9.71 to 34.7 µM) | 12.5 to 150 (≈ 34.7 to 416 µM) | 
CCc1cc(C(=O)O)c(=O)[nH]c1-c1ccc(N2C[C@@H](O)[C@@H](O)C2)cc1 [Cpd 303, 6-{4-[(3R,4S)-3,4-dihydroxypyrrolidin-1-yl]phenyl}-5-ethyl-2-oxo-1,2-dihydropyridine-3-carboxylic acid] | 12.5 to 150 (≈ 36.3 to 436 µM) | < 1 | 12.5 to 150 (≈ 36.3 to 436 µM) | 

Source: US9650395B2, “Antibacterial compounds and methods for use” (PTC Therapeutics, Inc., priority 2011, dated 2017)
